Among the data in PubChem BioAssay AID272 (DTP/NCI, 2004) are T/C values, retold here.

The assay concerns Lewis lung carcinoma i.m., BDF1 mice, T/C %. Briefly: NCI In Vivo Anticancer Drug Screen. Data for tumor model Lewis Lung Carcinoma (intramuscular) in B6D2F1 (BDF1) mice. The procedure, abridged: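 Compound given to mice with transplantable tumours; survival or tumour size compared against the vehicle control group, reported as T divided by C.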
The mark [1] stands for this setting: endpoint: mean tumor weight (est.), dose: 5.0 mg/kg/injection, schedule: Q01DX011 (ip), vehicle: saline, higher = larger tumour.
Setting [2] is: endpoint: median survival time, dose: 5.0 mg/kg/injection, schedule: Q01DX011 (ip), vehicle: saline, higher = longer survival.
Where [3] appears, read: endpoint: median survival time, dose: 50.0 mg/kg/injection, schedule: Q01DX011 (ip), vehicle: saline, higher = longer survival.
Setting [4] is: endpoint: median survival time, dose: 100.0 mg/kg/injection, schedule: Q01DX011 (ip), vehicle: saline, higher = longer survival.
The mark [5] stands for this setting: endpoint: median survival time, dose: 400.0 mg/kg/injection, schedule: Q01DX011 (ip), vehicle: saline, higher = longer survival.

Results filed as inconclusive are left out.

For the molecule `CC(=O)n1cc(F)c(=O)[nH]c1=O`, the T/C is, setting by setting: (endpoint: median survival time, dose: 6.0 mg/kg/injection, schedule: Q01DX011 (ip), vehicle: saline, higher = longer survival) 98 % of control; (endpoint: median survival time, dose: 12.0 mg/kg/injection, schedule: Q01DX011 (ip), vehicle: saline, higher = longer survival) 111 % of control; (endpoint: median survival time, dose: 24.0 mg/kg/injection, schedule: Q01DX011 (ip), vehicle: saline, higher = longer survival) 109 % of control.
Regarding `CC1=C2C(=CC(C)(C)[C@@H]2O)C(=O)[C@](C)(O)C12CC2`, the T/C was 95 % of control (endpoint: mean tumor weight, dose: 0.1 mg/kg/injection, schedule: Q01DX011 (ip), vehicle: other, higher = larger tumour); 84 % of control (endpoint: mean tumor weight, dose: 0.2 mg/kg/injection, schedule: Q01DX011 (ip), vehicle: other, higher = larger tumour); 21 % of control (endpoint: mean tumor weight, dose: 0.4 mg/kg/injection, schedule: Q01DX011 (ip), vehicle: other, higher = larger tumour).
For the molecule `COc1cc([C@@H]2c3cc4c(cc3[C@H](O)[C@H]3COC(=O)[C@H]23)OCO4)cc(OC)c1OC`, the T/C runs as follows: (endpoint: mean tumor weight, dose: 0.25 mg/kg/injection, schedule: Q01DX011 (ip), vehicle: Klucel (hydroxypropylcellulose) (HPC), higher = larger tumour) 100 % of control; (endpoint: mean tumor weight, dose: 0.5 mg/kg/injection, schedule: Q01DX011 (ip), vehicle: Klucel (hydroxypropylcellulose) (HPC), higher = larger tumour) 77 % of control; (endpoint: mean tumor weight, dose: 1.0 mg/kg/injection, schedule: Q01DX011 (ip), vehicle: Klucel (hydroxypropylcellulose) (HPC), higher = larger tumour) 105 % of control; (endpoint: median survival time, dose: 0.13 mg/kg/injection, schedule: Q01DX011 (ip), vehicle: Klucel (hydroxypropylcellulose) (HPC), higher = longer survival) 87 % of control; (endpoint: median survival time, dose: 0.25 mg/kg/injection, schedule: Q01DX011 (ip), vehicle: Klucel (hydroxypropylcellulose) (HPC), higher = longer survival) 107 % of control; (endpoint: median survival time, dose: 0.5 mg/kg/injection, schedule: Q01DX011 (ip), vehicle: Klucel (hydroxypropylcellulose) (HPC), higher = longer survival) 114 % of control.
Take `CCOC(=O)C(CS)NC(=O)CCNC(C)=O` (stereo not drawn): the T/C (endpoint: median survival time, dose: 4.0 mg/kg/injection, schedule: Q01DX009 (ip), vehicle: water, higher = longer survival) was 109 % of control; the T/C (endpoint: median survival time, dose: 8.0 mg/kg/injection, schedule: Q01DX009 (ip), vehicle: water, higher = longer survival) was 119 % of control; the T/C (endpoint: median survival time, dose: 32.0 mg/kg/injection, schedule: Q01DX009 (ip), vehicle: water, higher = longer survival) is 113 % of control; the T/C (endpoint: median survival time, dose: 64.0 mg/kg/injection, schedule: Q01DX009 (ip), vehicle: water, higher = longer survival) is 124 % of control.
Take `Cc1ccc2c(C)c3c(ccc4ccccc43)c[n+]2c1`: the T/C runs as follows: (endpoint: mean tumor weight (est.), dose: 1.25 mg/kg/injection, schedule: Q01DX011 (ip), vehicle: saline, higher = larger tumour) 87 % of control; (endpoint: mean tumor weight (est.), dose: 2.5 mg/kg/injection, schedule: Q01DX011 (ip), vehicle: saline, higher = larger tumour) 96 % of control; under setting [1], 72 % of control; (endpoint: median survival time, dose: 1.25 mg/kg/injection, schedule: Q01DX011 (ip), vehicle: saline, higher = longer survival) 106 % of control; (endpoint: median survival time, dose: 2.5 mg/kg/injection, schedule: Q01DX011 (ip), vehicle: saline, higher = longer survival) 110 % of control; under setting [2], 100 % of control.
`COC1N(C2CC(O)C(CO)O2)C(=O)NC(=O)C1(F)Br` (stereo not drawn): the T/C runs as follows: under setting [1], 87 % of control; (endpoint: mean tumor weight (est.), dose: 10.0 mg/kg/injection, schedule: Q01DX011 (ip), vehicle: saline, higher = larger tumour) 29 % of control; (endpoint: mean tumor weight (est.), dose: 20.0 mg/kg/injection, schedule: Q01DX011 (ip), vehicle: saline, higher = larger tumour) 7 % of control; under setting [2], 103 % of control.
Consider `COc1c2c([n+](C)c3c(OC)cccc13)OC(C(C)C)C2` (stereo not drawn), for which the T/C was 85 % of control (endpoint: mean tumor weight (est.), dose: 0.25 mg/kg/injection, schedule: Q01DX011 (ip), vehicle: saline, higher = larger tumour); 82 % of control (endpoint: mean tumor weight (est.), dose: 0.5 mg/kg/injection, schedule: Q01DX011 (ip), vehicle: saline, higher = larger tumour); 90 % of control (endpoint: median survival time, dose: 0.25 mg/kg/injection, schedule: Q01DX011 (ip), vehicle: saline, higher = longer survival); 101 % of control (endpoint: median survival time, dose: 0.5 mg/kg/injection, schedule: Q01DX011 (ip), vehicle: saline, higher = longer survival).
Regarding `CC(C)(C)CC(C)(C)NCC(O)COc1ccc(C(C)(C)c2ccc(OCC(O)CNC(C)(C)CC(C)(C)C)cc2)cc1` (stereo not drawn), where the note is “endpoint: mean tumor weight (est.), dose: 3.12 mg/kg/injection, schedule: Q01DX011 (ip), vehicle: other, higher = larger tumour”, the T/C is 68 % of control.
`NC1CONC1=O` (stereo not drawn): the T/C runs as follows: (endpoint: mean tumor weight (est.), dose: 50.0 mg/kg/injection, schedule: Q01DX011 (ip), vehicle: saline, higher = larger tumour) 95 % of control; (endpoint: mean tumor weight (est.), dose: 100.0 mg/kg/injection, schedule: Q01DX011 (ip), vehicle: saline, higher = larger tumour) 93 % of control; (endpoint: mean tumor weight (est.), dose: 200.0 mg/kg/injection, schedule: Q01DX011 (ip), vehicle: saline, higher = larger tumour) 84 % of control; (endpoint: mean tumor weight (est.), dose: 400.0 mg/kg/injection, schedule: Q01DX011 (ip), vehicle: saline, higher = larger tumour) 76 % of control; under setting [3], 94 % of control; under setting [4], 106 % of control. Also, the T/C runs as follows: (endpoint: median survival time, dose: 200.0 mg/kg/injection, schedule: Q01DX011 (ip), vehicle: saline, higher = longer survival) 106 % of control; under setting [5], 124 % of control.
Consider `CCCC(=O)Nc1ncnc2c1ncn2C1OC2COP(=O)(O)OC2C1OC(=O)CCC` (stereo not drawn), for which the T/C is 107 % of control (endpoint: mean tumor weight, dose: 25.0 mg/kg/injection, schedule: Q01DX011 (ip), vehicle: saline, higher = larger tumour); 106 % of control (endpoint: mean tumor weight, dose: 50.0 mg/kg/injection, schedule: Q01DX011 (ip), vehicle: saline, higher = larger tumour); 114 % of control (endpoint: mean tumor weight, dose: 100.0 mg/kg/injection, schedule: Q01DX011 (ip), vehicle: saline, higher = larger tumour); 96 % of control (endpoint: mean tumor weight, dose: 200.0 mg/kg/injection, schedule: Q01DX011 (ip), vehicle: saline, higher = larger tumour); 90 % of control (endpoint: mean tumor weight, dose: 400.0 mg/kg/injection, schedule: Q01DX011 (ip), vehicle: saline, higher = larger tumour); 118 % of control (endpoint: median survival time, dose: 25.0 mg/kg/injection, schedule: Q01DX011 (ip), vehicle: saline, higher = longer survival). In addition, the T/C under setting [3] is 118 % of control, the T/C under setting [4] was 100 % of control and the T/C under setting [5] is 104 % of control.
